# Source: patent publication US20140199279A1, “METHODS FOR ENHANCING THE DELIVERY OF GENE-[…]” (Bluebird Bio, Inc., priority 2011, published 2014)
# Where “and” joins values, the source holds several entries; their conditions need not be identical. Equal entries are not always repeated.
# Tests used:
# [1] = system: G-CSF mobilized peripheral blood CD34+ cells; experiment: Puromycin selection of HPV654-transduced G-CSF mobilized peripheral blood CD34+ cells; PCR of CFU-GM colonies for lentiviral vector; assay type: cell-based, human
# Protocol: (§1) Viral titers were determined by qPCR analysis of transduced NIH3T3 cells with proviral copy number controls.
# (§2) Either fresh bone marrow (BM, Lonza, Walkersville, Md.) or cryopreserved G-CSF-mobilized peripheral blood (mPB, AllCells, Emeryville, Calif.) CD34^+ purified cells were used from normal human donors. At a cell concentration of 1×10^6/ml, the CD34 cells were prestimulated for 24 hours (BM) or 18 hours (mPB) in StemPro-34 SFM supplemented with L-glutamine, 100 ng/ml hSCF, 100 ng/ml hTPO, 100 ng/ml hFLT3-L and 20 ng/ml hIL-3 for BM or 60 ng/ml hIL-3 for mPB. The cells were then resuspended at a concentration of 4×10^6 (BM) or 3×10^6 (mPB) cells/ml in the same medium containing cytokines with additional supplementation with 8 μg/ml protamine sulfate and the HPV654 supernatant at either 10% (final exposed titer of 3×10^7 IU/ml with MOI of 7.5 for BM and 1×10^7 IU/ml with MOI of 3.3 for mPB) or 50% (final exposed titer of 1.5×108 IU/ml with MOI of 37.5 for BM and 5×10^7 IU/ml with MOI of 16.7 for mPB). […] Each colony was then analyzed for the presence of the lentiviral vector by PCR analysis of individual colonies using primers for erythropoietin gene for BM and human actin gene for mPB and primers specific for the lentiviral vector (GAG for BM and LTR for mPB).
# [2] = system: bone marrow CD34+ cells; experiment: Puromycin selection of HPV654-transduced bone marrow CD34+ cells; PCR of CFU-GM colonies for lentiviral vector; assay type: cell-based, human; conditions: BM CD34+ cells, 5 μg/ml puromycin for 24 hours, 14 days growth
# Protocol: as §1, §2
compound,measurement,setting,value
COc1ccc(C[C@H](N)C(=O)N[C@H]2[C@@H](O)[C@H](n3cnc4c(N(C)C)ncnc43)O[C@@H]2CO)cc1 [puromycin],colonies positive for the lentiviral vector (transduced cells),[1],88% and 100%
same,colonies positive for the lentiviral vector (transduced cells),[2]; 10% HPV654 supernatant,100%
same,colonies positive for the lentiviral vector (transduced cells),[2]; 50% HPV654 supernatant,79%
